What was measured:
[1] = system: Pseudomonas aeruginosa (PA); assay: MIC determination; format: cell-based; details: Pseudomonas aeruginosa; PA; CAMH broth, 20 μM Apo-Transferrin, 37° C., 18 hours; read-out: Minimum Inhibitory Concentrations, PA
Outline: (§1)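 Growth inhibition was judged by well clarity after 18 h at 37 °C in transferrin-supplemented (20 μM apo form) CAMH. Standardized suspensions (0.08-0.1 OD600) were added within 30 min of preparation.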

[2] = system: Pseudomonas aeruginosa PA (RR-1); assay: MIC determination; format: cell-based; details: Pseudomonas aeruginosa; PA (RR-1); CAMH broth, 20 μM Apo-Transferrin, 37° C., 18 hours; read-out: Minimum Inhibitory Concentrations, PA (RR-1)
Outline: as §1

[3] = system: Pseudomonas aeruginosa PA-RR-(980151052); assay: MIC determination; format: cell-based; details: Pseudomonas aeruginosa; PA-RR-(980151052); CAMH broth, 20 μM Apo-Transferrin, 37° C., 18 hours; read-out: Minimum Inhibitory Concentrations, PA-RR-(980151052)
Outline: as §1

[4] = system: Pseudomonas aeruginosa PA-RR-(G8062859); assay: MIC determination; format: cell-based; details: Pseudomonas aeruginosa; PA-RR-(G8062859); CAMH broth, 20 μM Apo-Transferrin, 37° C., 18 hours; read-out: Minimum Inhibitory Concentrations, PA-RR-(G8062859)
Outline: as §1

[5] = system: A. baumannii (JMI OXA-58); assay: MIC determination; format: cell-based, Acinetobacter baumannii; details: Acinetobacter baumannii, class D carbapenemase producer, CAMH broth, 20 μM Apo-Transferrin, 37° C., 18 hours, read-out: Minimum Inhibitory Concentrations, A. baumannii (JMI OXA-58)
Experimental: (§2) Sterile technique was used throughout these experiments. Suspensions of organisms were removed from storage (−80° C.) and partially thawed. Partially thawed organisms (1 μL) were inoculated into 3 mL sterile LB Broth in a sterile culture tube and capped, then cultured at 37° C. with shaking for 4-5 hours until the optical density at 600 nm (OD600) was greater than 0.1 on a single beam spectrophotometer.
(§3) The concentration of organisms was adjusted to 0.08-0.1 OD600 (0.5 McFarland units) by dilution with sterile cation-adjusted Meuller-Hinton (CAMH) broth. The suspensions were used within 30 minutes of preparation.
(§4) A stock solution was made of each test compound by measuring 6.4 mg of the compound on an analytical balance and dissolving it in DMSO (1 mL) to get a transparent solution. The solutions were stored at −20° C. and thawed prior to use.
(§5) Sterile CAMH broth (200 μL) containing 20 μM Apo-Transferrin was pipetted into the first row of 8 columns of a sterile, round-bottomed, transparent, 96-well microplate using an 8-channel pipette equipped with sterile tips. One hundred μL was pipetted into the wells of the remaining 11 rows.
(§6) With an 8-channel pipette equipped with sterile tips, 100 μL of the first row solution was transferred to the second row and mixed. The process was repeated for the second to third rows and continued through row 11. One hundred μL from row 11 was removed and discarded so that all 12 rows contained 100 μL. Row 12 contained no compound and rows 1-11 contained 64, 32, 16, 8, 4, 2, 1, 0.5, 0.25, 0.125, […] of a given compound.
(§7) Inoculant suspensions (0.5 μL) were added to the 12 wells of each column. The plates were then covered and incubated at 37° C. overnight for 18 hours.
(§8) For each organism the MIC was determined by identifying the transparent well with the lowest test compound concentration.

[6] = system: A. baumannii; assay: MIC determination; format: cell-based, Acinetobacter baumannii; details: for MIC: Acinetobacter baumannii, A. baumannii, CAMH broth, 20 μM Apo-Transferrin, 37° C., 18 hours, read-out: Minimum Inhibitory Concentrations, A. baumannii
Experimental: as §2, §3, §4, §5, §6, §7, §8

[7] = system: EC(JMI OXA-48); assay: MIC determination; format: cell-based, Escherichia coli; details: Escherichia coli, CAMH broth, 20 μM Apo-Transferrin, 37° C., 18 hours, read-out: Minimum Inhibitory Concentrations, EC(JMI OXA-48)
Experimental: as §2, §3, §4, §5, §6, §7, §8

[8] = system: KP (ATCC KPC-3); assay: MIC determination; format: cell-based, Klebsiella pneumoniae; details: CAMH broth, 20 μM Apo-Transferrin, 37° C., 18 hours
Experimental: as §2, §3, §4, §5, §6, §7, §8

[9] = system: KP (GJ 5659 TEM-26); assay: MIC determination; format: cell-based, Klebsiella pneumoniae; details: CAMH broth, 20 μM Apo-Transferrin, 37° C., 18 hours
Experimental: as §2, §3, §4, §5, §6, §7, §8

[10] = system: KP (RR -1); assay: MIC determination; format: cell-based, Klebsiella pneumoniae; details: CAMH broth, 20 μM Apo-Transferrin, 37° C., 18 hours
Experimental: as §2, §3, §4, §5, §6, §7, §8

[11] = system: KP (URMC-1); assay: MIC determination; format: cell-based, Klebsiella pneumoniae; details: CAMH broth, 20 μM Apo-Transferrin, 37° C., 18 hours
Experimental: as §2, §3, §4, §5, §6, §7, §8

[12] = system: KP (URMC-2); assay: MIC determination; format: cell-based, Klebsiella pneumoniae; details: CAMH broth, 20 μM Apo-Transferrin, 37° C., 18 hours
Experimental: as §2, §3, §4, §5, §6, §7, §8

[13] = system: KP (URMC-3); assay: MIC determination; format: cell-based, Klebsiella pneumoniae; details: CAMH broth, 20 μM Apo-Transferrin, 37° C., 18 hours
Experimental: as §2, §3, §4, §5, §6, §7, §8

[14] = system: KP(GJ 5934 TEM-26); assay: MIC determination; format: cell-based, Klebsiella pneumoniae; details: CAMH broth, 20 μM Apo-Transferrin, 37° C., 18 hours
Experimental: as §2, §3, §4, §5, §6, §7, §8

[15] = system: KP(JMI KPC-2); assay: MIC determination; format: cell-based, Klebsiella pneumoniae; details: CAMH broth, 20 μM Apo-Transferrin, 37° C., 18 hours
Experimental: as §2, §3, §4, §5, §6, §7, §8

[16] = system: KP(ATCC TEM-10/TEM-12); format: cell-based, Klebsiella pneumoniae; details: CAMH broth, 20 μM Apo-Transferrin, 37° C., 18 hours
Experimental: as §2, §3, §4, §5, §6, §7, §8

[17] = system: ENA (URMC-1); assay: MIC determination; format: cell-based, Enterobacter aerogenes; details: Klebsiella aerogenes, CAMH broth, 20 μM Apo-Transferrin, 37° C., 18 hours, read-out: Minimum Inhibitory Concentrations, ENA (URMC-1)
Experimental: as §2, §3, §4, §5, §6, §7, §8

[18] = system: ENA (URMC-2); assay: MIC determination; format: cell-based, Enterobacter aerogenes; details: Klebsiella aerogenes, CAMH broth, 20 μM Apo-Transferrin, 37° C., 18 hours, read-out: Minimum Inhibitory Concentrations, ENA (URMC-2)
Experimental: as §2, §3, §4, §5, §6, §7, §8

[19] = system: EA (URMC -3); assay: MIC determination; format: cell-based; details: CAMH broth, 20 μM Apo-Transferrin, 37° C., 18 hours
Experimental: as §2, §3, §4, §5
To each well of the first row was pipetted 2.0 μL of the 6.4 mg/mL stock test compound stock solution to give 1:100 dilutions and a final concentration of 64 μg/mL and mixed.
as §6, §7, §8

[20] = system: PM (RR -1); assay: MIC determination; format: cell-based, Proteus mirabilis; details: CAMH broth, 20 μM Apo-Transferrin, 37° C., 18 hours
Experimental: as §2, §3, §4, §5, §6, §7, §8

[21] = system: CF (RR -1); assay: MIC determination; format: cell-based, Citrobacter freundii; details: CAMH broth, 20 μM Apo-Transferrin, 37° C., 18 hours
Experimental: as §2, §3, §4, §5, §6, §7, §8

[22] = system: ENC (ATCC NDM-1); assay: MIC determination; format: cell-based, Enterobacter cloacae; details: CAMH broth, 20 μM Apo-Transferrin, 37° C., 18 hours
Experimental: as §2, §3, §4, §5, §6, §7, §8

[23] = system: Isogenic E. coli J58 strain carrying SHV-1; assay: MIC determination, isogenic E. coli strains; format: cell-based; details: Escherichia coli, 18 h, read-out: Mimimum Inhibitory Concentrations, SHV-1
Outline: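 MIC is the lowest compound concentration leaving a transparent well after overnight (18 h) incubation at 37 °C. The test strain was E. coli J53 expressing plasmid-borne SHV-1 beta-lactamase from pBC-SK(+), adjusted to 0.5 McFarland. Compounds were twofold serially diluted, starting at 64 μg/mL, in CAMH broth supplemented with 20 μM apo-transferrin.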

[24] = system: Isogenic E. coli J58 strain carrying IMP-1; assay: MIC determination, isogenic E. coli strains; format: cell-based
Outline: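 Broth microdilution in cation-adjusted Mueller-Hinton broth with 20 μM apo-transferrin, compound serially diluted two-fold from 64 μg/mL, against E. coli J53 carrying plasmid-borne IMP-1. Inoculum adjusted to 0.5 McFarland; plates incubated 18 h at 37° C. MIC taken as lowest concentration giving a clear well.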

| Compound | MIC [1] [µg/mL] | MIC [2] [µg/mL] | MIC [3] [µg/mL] | MIC [4] [µg/mL] | MIC [5] [µg/mL] | MIC [6] [µg/mL] | MIC [7] [µg/mL] | Minimum Inhibitory Concentrations, KP (ATCC KPC-3) [8] [microgram/mL] | Minimum Inhibitory Concentrations, KP (GJ 5659 TEM-26) [9] [microgram/mL] | Mimimum Inhibitory Concentrations, KP (RR -1) [10] [microgram/mL] | Minimum Inhibitory Concentrations, KP (URMC-1) [11] [microgram/mL] | Minimum Inhibitory Concentrations, KP (URMC-2) [12] [microgram/mL] | Minimum Inhibitory Concentrations, KP (URMC-3) [13] [microgram/mL] | Minimum Inhibitory Concentrations, KP(GJ 5934 TEM-26) [14] [microgram/mL] | Minimum Inhibitory Concentrations, KP(JMI KPC-2) [15] [microgram/mL] | Minimum Inhibitory Concentrations, KP(ATCC TEM-10/TEM-12) [16] [microgram/mL] | MIC [17] [µg/mL] | MIC [18] [µg/mL] | Mimimum Inhibitory Concentrations, EA (URMC -3) [19] [microgram/mL] | Mimimum Inhibitory Concentrations, PM (RR -1) [20] [microgram/mL] | further results |
| --- | --- | --- | --- | --- | --- | --- | --- | --- | --- | --- | --- | --- | --- | --- | --- | --- | --- | --- | --- | --- | --- |
| CC(C)(O/N=C(\C(=O)N[C@@H]1C(=O)N2C(C(=O)O)=C(C=Cc3ccc(C[N+]4(C)CCc5c(Cl)c(O)c(O)c(Cl)c5C4)cc3)CS[C@H]12)c1csc(N)n1)C(=O)O (mixture of isomers) [Compound 429, 2-(4-((E/Z)-2-((6R,7R)-7-((Z)-2-(2-aminothiazol-4-yl)-2-(((2-carboxypropan-2-yl)oxy)imino)acetamido)-2-carboxy-8-oxo-5-thia-1-azabicyclo[4.2.0]oct-2-en-3-yl)vinyl)benzyl)-5,8 dichloro-6,7-dihydroxy-2-methyl-1,2,3,4-tetrahydroisoquinolin-2-ium] | 0.25 | 0.25 | 0.5 | 0.5 | > 64 | 2 | 2 | >64 | 0.5 | 0.25 | ≤0.06 | ≤0.06 | ≤0.06 | 0.5 | 16 | 4 | 2 | 1 | 2 | ≤0.06 | Mimimum Inhibitory Concentrations, CF (RR -1) [21]: ≤0.06 microgram/mL; Mimimum Inhibitory Concentrations, ENC (ATCC NDM-1) [22]: >64 microgram/mL; MIC [23]: 0.25 µg/mL; MIC ([24]; Escherichia coli, 18 h, read-out: Mimimum Inhibitory Concentrations, IMP-1): ≤ 0.06 µg/mL |
| CC(C)(O/N=C(\C(=O)N[C@@H]1C(=O)N2C(C(=O)O)=C(C=Cc3ccc(C[N+]4(C)CCc5ccc(O)c(O)c5C4)cc3)CS[C@H]12)c1csc(N)n1)C(=O)O (mixture of isomers) [Compound 442, 2-(4-((E/Z)-2-((6R,7R)-7-((Z)-2-(2-aminothiazol-4-yl)-2-(((2-carboxypropan-2-yl)oxy)imino)acetamido)-2-carboxy-8-oxo-5-thia-1-azabicyclo[4.2.0]oct-2-en-3 yl)vinyl)benzyl)-7,8-dihydroxy-2-methyl-1,2,3,4-tetrahydroisoquinolin-2-ium] | 0.13 | 0.5 | 2 | 0.25 | > 64 | 1 | 4 | >64 | 0.5 | 0.25 | 0.13 | 0.25 | ≤0.06 | 0.5 | 64 | 4 | 0.5 | 1 | 1 | ≤0.06 | MICs for an Acinetobacter baumannii strain, in words ([6]; review of Table 2): low microgram/mL MICs; Mimimum Inhibitory Concentrations, CF (RR -1) [21]: 0.25 microgram/mL; Mimimum Inhibitory Concentrations, ENC (ATCC NDM-1) [22]: >64 microgram/mL; MIC [23]: 0.5 µg/mL; MICs for an E. coli strain carrying the gene for carbapenemase IMP-1, in words ([24]; review of Tables 4-1 and 4-2): low microgram/mL MICs |

Source: patent publication US20190100534A1, “Cephem Compounds with Latent Reactive Groups” (Gladius Pharmaceuticals, Inc., priority 2017, published 2019)
